One data set has as its target T1, human KDR enzyme (Homo sapiens, UniProt P35968).
T1 construct: The cytoplasmic domain of the human KDR enzyme was cloned in the form of a GST fusion; GST; made in house; host or cells: SF21 insect cells (baculovirus, pFastBac)
Briefly: phosphorylation of substrate by the KDR enzyme in vitro, scintillation technique. Particulars: read-out: KDR IC 50. Format: biochemical. As to the method:
The inhibitory effect of the compounds is determined in an assay for phosphorylation of substrate by the KDR enzyme in vitro using a scintillation technique (96-well plate, NEN).
The cytoplasmic domain of the human KDR enzyme was cloned in the form of a GST fusion into the baculovirus expression vector pFastBac. The protein was expressed in SF21 cells and purified to approximately 60% homogeneity.
The kinase activity of KDR is measured in 20 mM MOPS, 10 mM MgCl2, 10 mM MnCl2, 1 mM DTT, 2.5 mM EGTA, 10 mM β-glycerophosphate, pH=7.2, in the presence of 10 mM MgCl2, 100 μM Na3VO4, 1 mM NaF. 10 μl of the compound are added to 70 μl of kinase buffer containing 100 ng of KDR enzyme at 4° C. The reaction is initiated by adding 20 μl of solution containing 2 μg of substrate (SH2-SH3 fragment of PLCγ expressed in the form of a GST fusion protein), 2 μCi γ ^33P[ATP] and 2 μM cold ATP. After incubation at 37° C. for 1 hour, the reaction is stopped by adding 1 volume (100 μl) of 200 mM EDTA. The incubation buffer is removed and the wells are washed three times with 300 μl of PBS. The radioactivity is measured in each well using a Top Count NXT radioactivity counter (Packard).
The background noise is determined by measuring the radioactivity in four different wells containing the radioactive ATP and the substrate alone.
A control for total activity is measured in four different wells containing all the reactants (γ^33P-[ATP], KDR and PLCY substrate) but in the absence of compound.
The inhibition of the KDR activity with the compound of the invention is expressed as percentage inhibition of the control activity determined in the absence of compound.
The compound SU5614 (Calbiochem) (1 μM) is included in each plate as an inhibition control.

The target in the next data set is T2, human Tie2 (Homo sapiens, UniProt Q02763).
T2 construct: corresponding to the intracellular domain amino acids 776-1124 was generated by PCR; made in house; host or cells: baculovirus expression vector pFastBacGT
T2 sequence (Q02763 776-1124): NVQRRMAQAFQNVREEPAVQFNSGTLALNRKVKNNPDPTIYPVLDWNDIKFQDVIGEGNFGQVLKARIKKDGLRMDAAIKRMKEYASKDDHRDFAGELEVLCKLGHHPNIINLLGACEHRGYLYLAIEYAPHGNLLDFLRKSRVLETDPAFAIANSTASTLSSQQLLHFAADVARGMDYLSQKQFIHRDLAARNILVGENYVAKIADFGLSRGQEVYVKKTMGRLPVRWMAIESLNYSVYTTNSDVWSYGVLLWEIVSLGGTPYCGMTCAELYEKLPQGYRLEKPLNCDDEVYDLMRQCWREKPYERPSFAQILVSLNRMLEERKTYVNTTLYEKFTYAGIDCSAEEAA
As to the kind of experiment: phosphorylation of PLC by Tie2 (GST-Tie2), FlashPlate. Particulars: read-out: TIE2 IC 50. It counts as biochemical. As for the experimental part:
The human Tie2 coding sequence corresponding to the intracellular domain amino acids 776-1124 was generated by PCR using the cDNA isolated from human placenta as a model. This sequence was introduced into a baculovirus expression vector pFastBacGT in the form of a GST fusion protein.
The inhibitory effect of the molecules is determined in an assay for phosphorylation of PLC by Tie2 in the presence of GST-Tie2 purified to approximately 80% homogeneity. The substrate is made up of the SH2-SH3 fragments of PLC expressed in the form of a GST fusion protein.
The kinase activity of Tie2 is measured in a 20 mM MOPS buffer, pH 7.2, containing 10 mM MgCl2, 10 mM MnCl2, 1 mM DTT and 10 mM of glycerophosphate. A reaction mixture made up to 70 μl of kinase buffer containing 100 ng of GST-Tie2 enzyme is deposited into each well of a 96-well FlashPlate kept on ice. 10 μl of the test molecule diluted in DMSO at a maximum concentration of 10% are then added. For a given concentration, each measurement is determined in quadruplicate. The reaction is initiated by adding 20 μl of solution containing 2 μg of GST-PLC, 2 μM of cold ATP and 1 μCi of ^33P [ATP]. After incubation at 37° C. for 1 hour, the reaction is stopped by adding 1 volume (100 μl) of 200 mM EDTA. After the incubation buffer has been removed, the wells are washed three times with 300 μl of PBS. The radioactivity is measured on a Wallac MicroBeta 1450.
The inhibition of the Tie2 activity is calculated and expressed as percentage inhibition with respect to the control activity determined in the absence of compound.

For the next data set, the target named is FAK (Homo sapiens, UniProt Q05397). Briefly: FAK inhibition. It counts as biochemical.
Chain of FAK (Q05397 whole entry, species assumed): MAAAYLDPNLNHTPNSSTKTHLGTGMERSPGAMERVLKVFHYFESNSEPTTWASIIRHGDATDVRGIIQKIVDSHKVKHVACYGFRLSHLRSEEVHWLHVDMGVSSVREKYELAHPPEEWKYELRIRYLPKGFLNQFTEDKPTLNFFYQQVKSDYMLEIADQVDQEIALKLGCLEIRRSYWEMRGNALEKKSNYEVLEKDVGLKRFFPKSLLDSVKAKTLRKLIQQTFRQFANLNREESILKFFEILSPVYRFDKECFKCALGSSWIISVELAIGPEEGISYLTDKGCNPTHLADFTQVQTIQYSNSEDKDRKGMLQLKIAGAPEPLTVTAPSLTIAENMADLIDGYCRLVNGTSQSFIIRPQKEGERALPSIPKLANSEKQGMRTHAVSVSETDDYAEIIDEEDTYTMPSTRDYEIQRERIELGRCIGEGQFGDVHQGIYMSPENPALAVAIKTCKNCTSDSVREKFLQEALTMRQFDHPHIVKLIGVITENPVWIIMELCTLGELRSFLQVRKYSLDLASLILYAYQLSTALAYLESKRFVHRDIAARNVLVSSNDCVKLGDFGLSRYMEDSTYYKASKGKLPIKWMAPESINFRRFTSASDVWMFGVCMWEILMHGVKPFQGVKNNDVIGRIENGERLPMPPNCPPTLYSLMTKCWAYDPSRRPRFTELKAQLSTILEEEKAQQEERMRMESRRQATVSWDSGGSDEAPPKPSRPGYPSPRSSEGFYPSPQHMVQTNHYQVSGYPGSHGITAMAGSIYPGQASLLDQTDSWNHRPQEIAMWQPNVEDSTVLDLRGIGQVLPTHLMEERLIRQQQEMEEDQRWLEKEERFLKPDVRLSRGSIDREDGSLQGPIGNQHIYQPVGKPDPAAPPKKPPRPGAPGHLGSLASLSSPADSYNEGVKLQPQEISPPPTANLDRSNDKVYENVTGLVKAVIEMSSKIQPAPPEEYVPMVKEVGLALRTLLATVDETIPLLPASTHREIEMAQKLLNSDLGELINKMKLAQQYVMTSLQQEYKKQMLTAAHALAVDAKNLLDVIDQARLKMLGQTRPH

T1 sequence (P35968 786-1356 limits assumed): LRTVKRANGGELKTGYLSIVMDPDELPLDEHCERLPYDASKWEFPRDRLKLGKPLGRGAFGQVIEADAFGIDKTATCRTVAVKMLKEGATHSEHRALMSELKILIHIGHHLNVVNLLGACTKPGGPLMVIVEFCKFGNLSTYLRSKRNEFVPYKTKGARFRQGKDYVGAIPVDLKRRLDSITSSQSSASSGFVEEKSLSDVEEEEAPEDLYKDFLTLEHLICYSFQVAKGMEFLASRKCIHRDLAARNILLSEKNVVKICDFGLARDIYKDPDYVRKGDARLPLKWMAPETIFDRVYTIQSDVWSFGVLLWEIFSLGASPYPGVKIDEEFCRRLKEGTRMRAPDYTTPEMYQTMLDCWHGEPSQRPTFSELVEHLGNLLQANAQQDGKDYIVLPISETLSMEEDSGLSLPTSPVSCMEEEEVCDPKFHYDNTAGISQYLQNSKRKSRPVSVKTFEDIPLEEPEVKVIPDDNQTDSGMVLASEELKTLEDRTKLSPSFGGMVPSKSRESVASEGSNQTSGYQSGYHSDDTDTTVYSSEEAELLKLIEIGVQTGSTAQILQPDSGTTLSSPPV

Regarding `CC(C)(C)c1cc(NC(=O)Nc2ccc(-c3c(C(N)=O)[nH]c4ccccc34)cc2)no1` [Example 10, 3-{4-[3-(5-tert-butylisoxazol-3-yl)ureido]-phenyl}-1H-indole-2-carboxamide], the melting point fell in the range of 176 to 178 °C. Besides, the IC50 at human KDR enzyme was found to be 37 nM. The IC50 on human Tie2 was 3 nM. At FAK, this molecule came in with an IC50 of 303 nM.

`NC(=O)c1[nH]c2ccccc2c1-c1ccc(NC(=O)Nc2ccc(OC(F)(F)F)cc2)cc1` [Example 11, 3-{4-[3-(4-Trifluoromethoxyphenyl)ureido]-phenyl}-1H-indole-2-carboxamide] yielded a melting point of 162 to 164 °C. For the same molecule, the IC50 on human KDR enzyme was found to be 153 nM. Further, on human Tie2, the IC50 turned out to be 105 nM.

By melting point is commonly meant the temperature of the solid-liquid transition.

(Values after patent publication US7566736B2, “Substituted indoles, compositions containing them, method for the production thereof and their use” (Aventis Pharma S.A., priority 2004, dated 2009).)
